# Test results published in US12343346B2, “Salts and solid forms of (S)-3-(4-((4-(morpholinomethyl)benzyl)oxy)-1-oxoisoindolin-2-yl)piperidine-2,6-dione and compositions comprising and methods of using the same” (Celgene Corporation, priority 2012, dated 2025).
# Entries after “also recorded” stand apart in the source; their conditions may differ. Structures can show the parent of a compound that is named as a salt. Where two headings read alike, the source gives them in different places.
# Tests used:
# [1] = Stability and form transfer experiments of HCl salt forms (XRPD result); type: physicochemical
# Description: (§1) All of the solid samples generated in the polymorph screen were analyzed by XRPD. XRPD analysis was conducted on a PANalytical Empyrean or a Thermo ARL X'TRA X-ray powder diffractometer using Cu Kα radiation at 1.54 Å.
# Further form conversion experiments were performed to determine interconversion among solid forms. Form conversion was also observed during further characterization of the solid forms.
# [2] = Competitive slurry / Form E and Form F transformation; type: physicochemical
# [3] = Dynamic vapor sorption (DVS) moisture sorption/desorption; type: physicochemical
# Description: Hygroscopicity was determined on a Surface Measurement Systems DVS. […] The relative humidity was increased from 0% to 90% RH at 10% RH step, then at 95% RH. The relative humidity was then decreased in a similar manner to accomplish a full adsorption/desorption cycle. For hydrated forms, the analysis started at 50% RH and increased to 90% RH at 10% RH step. The relative humidity was then decreased in a similar manner to 0% RH followed by increasing to 50% RH.
# [4] = Compression test (2000-psi); type: physicochemical; conditions: 2000-psi pressure for about 1 minute
# Description: The stability of Form A was further characterized by compression test and form transfer experiments. Upon application of 2000-psi pressure for about 1 minute, the material was still Form A (FIG. 43).
# [5] = Equilibration (slurry) of Form A at room temperature and 50° C., form by XRPD; type: physicochemical
# Description: Equilibration and evaporation experiments were carried out by adding an excess of the HCl salt to up to 2 mL of a test solvent. The resulting mixture was agitated for at least 24 hours at room temperature and 50° C. separately. Upon reaching equilibrium, the saturated supernatant solution was removed, filtered using 0.45 μm PTFE filters and allowed to evaporate in an open vial under nitrogen at room temperature and 50° C., respectively. The solid resulting from the equilibration was isolated and air-dried before analysis.
# as §1
# [6] = Heating of solid form followed by XRPD; type: physicochemical
# Description: Form C was obtained from anti-solvent recrystallization in DMSO/n-BuOH, DMSO/MTBE or DMSO/BuOAc. DSC and TGA thermograms of Form C are shown in FIG. 52 and FIG. 53, respectively. The TGA weight loss of 1.6 and 15.1 wt % corresponded to broad DSC endotherm around 50° C. and endotherms around 142-146° C., respectively, and can be attributed to loss of solvent/water in Form C. The DSC thermogram with an onset temperature of 251.8° C. was due to final melt/decomposition. […] The ^1H-NMR spectrum of Form C was consistent with Compound I structure with approximately one molar equivalent (or ˜13.9 wt %) of DMSO solvent (FIG. 55). Without being limited by any particular theory, Form C is a DMSO solvate. […]
compound,measurement,setting,value
O=C1CCC(N2Cc3c(OCc4ccc(CN5CCOCC5)cc4)cccc3C2=O)C(=O)N1 (racemic) [racemic Compound (I) hydrochloride methanol solvate],Form conversion upon exposure to ambient moisture,[1],converted to racemic Compound (I) hydrochloride hydrate
same,Form conversion upon exposure to ambient moisture,[1]; listed as MeOH solvate of HCl salt of racemic Compound (I),converts to a hydrate of HCl salt of racemic Compound (I)
Cl.O=C1CC[C@H](N2Cc3c(OCc4ccc(CN5CCOCC5)cc4)cccc3C2=O)C(=O)N1 [Form A + F],XRPD Result,"[2]; IPA/water (50/50), 3 days at RT",Form A
same,XRPD Result,"[2]; IPA/water (65/35), 3 days at RT",Form A
same,XRPD Result,"[2]; IPA/water (80/20), 6 days at RT",Form A
same,XRPD Result,"[2]; IPA/water (95/5), 6 days at RT",Form A
same,XRPD Result,"[2]; MeOAc saturated with water, 3 days at RT",Form A
same,XRPD Result,"[2]; Water, 3 days at RT",Form A
Cl.O=C1CC[C@H](N2Cc3c(OCc4ccc(CN5CCOCC5)cc4)cccc3C2=O)C(=O)N1 [Form A],Approximate Solubility,"Acetone, room temperature",<1000 µg/mL
same,Approximate Solubility,"CH2Cl2, room temperature",<1000 µg/mL
same,Approximate Solubility,"CH3CN, room temperature",<1000 µg/mL
same,Approximate Solubility,"CH3CN/H2O (1:1), room temperature",>50000 µg/mL
same,Approximate Solubility,"DMSO, room temperature",>50000 µg/mL
same,Approximate Solubility,"EtOAc, room temperature",<1000 µg/mL
same,Approximate Solubility,"EtOH, room temperature",~1000 µg/mL
same,Approximate Solubility,"EtOH/H2O (1:1), room temperature",>50000 µg/mL
same,Approximate Solubility,"H2O, room temperature",>50000 µg/mL
same,Approximate Solubility,"Heptane, room temperature",<1000 µg/mL
same,Approximate Solubility,"IPA, room temperature",~1000 µg/mL
same,Approximate Solubility,"MEK, room temperature",<1000 µg/mL
same,Approximate Solubility,"MTBE, room temperature",<1000 µg/mL
same,Approximate Solubility,"MeOAc, room temperature",<1000 µg/mL
same,Approximate Solubility,"MeOH, room temperature",~10000 µg/mL
same,Approximate Solubility,"THF, room temperature",<1000 µg/mL
same,Approximate Solubility,"THF/H2O (1:1), room temperature",>50000 µg/mL
same,Approximate Solubility,"Toluene, room temperature",<1000 µg/mL
same,Solubility (most soluble),"in MeCN/water (1:1), EtOH/water (1:1), THE/water (1:1), and water",greater than 50 mg/mL
same,Solubility (in words),in MeOH,moderate solubility
same,Solubility (low or very low),"in acetone, MeCN, n-BuOH, EtOH, IPA, EtOAc, MEK, DCM, MTBE, heptane, MeOAc, toluene and THF",≤ 1000 µg/mL
same,Approximate Solubility,"n-BuOH, room temperature",<1000 µg/mL
same,"Hygroscopicity (in words, from DVS)",[3],slightly hygroscopic
same,XRPD Result after DVS (adsorption/desorption cycles),[3],remains as the Form A crystal; also recorded: no change
same,DVS or other comments: water uptake,[3]; from 0 to 90% RH,1.8 wt % water uptake
same,Form after compression,[4],remains as the Form A crystal form; also recorded: still Form A
same,Relative stability of forms (in words),"[2]; water and aqueous/organic (aqueous/IPA) mixtures, competitive slurry",more stable than hydrate forms
same,Form by XRPD after equilibration,"[5]; MeCN/H2O (95:5), RT",Form D
same,Form by XRPD after slurry,"[5]; non-aqueous solvents, 24 h of slurry",Form A
Cl.O=C1CC[C@H](N2Cc3c(OCc4ccc(CN5CCOCC5)cc4)cccc3C2=O)C(=O)N1 [Form B],XRPD Result after DVS (adsorption/desorption cycles),[3],Form A
same,XRPD Result,"[1]; Exposed to ambient air, 1 week at RT",Form A
same,XRPD Result,"[1]; IPA, 24 h at RT",Form A
same,Form conversion during exposure to ambient / ambient storage,[1],converts to the Form A crystal form; also recorded: converted to Form A
same,Form conversion during exposure to ambient / ambient storage,[1]; listed as B,Converts to Form A
Cl.O=C1CC[C@H](N2Cc3c(OCc4ccc(CN5CCOCC5)cc4)cccc3C2=O)C(=O)N1 [Form C],XRPD Result after DVS (adsorption/desorption cycles),[3],Form A
same,Form conversion upon exposure to high humidity,[3]; higher than 70% RH in the DVS instrument,converts to the Form A crystal form; also recorded: convert to Form A
same,Form conversion in IPA slurry,[1],convert to Form A
same,XRPD Result,"[1]; IPA, 24 h at RT",Form A
same,XRPD Result,"[1]; MeOAc, 1 day at RT",Form A
same,XRPD pattern after heating,[6]; heated to 165° C.,converts to the Form A crystal form; also recorded: consistent with Form A
Cl.O=C1CC[C@H](N2Cc3c(OCc4ccc(CN5CCOCC5)cc4)cccc3C2=O)C(=O)N1 [Form E],"Hygroscopicity (in words, from DVS)",[3],hygroscopic
same,XRPD Result after DVS (adsorption/desorption cycles),[3],converts to the Form F crystal form; also recorded: partially converted to Form F
same,DVS or other comments: form conversion,[3]; during DVS experiment,Converts to Form F
same,Form conversion in IPA slurry,[1],converted to Form A
same,XRPD Result,"[1]; IPA, 24 h at RT",Form A
same,XRPD Result,"[2]; IPA/water (40/60), Spontaneous, RT",Form F
same,XRPD Result,"[2]; IPA/water (60/40), Spontaneous, RT",Form F
same,XRPD Result,"[2]; IPA/water (80/20), Spontaneous, RT",Form F
same,XRPD Result,"[2]; IPA/water (90/10), Spontaneous, RT",Form F
same,XRPD Result,"[2]; IPA/water (95/5), Spontaneous, RT",Form F
same,Form conversion in IPA/water mixtures,[2]; various IPA/water mixtures,convert to Form F
same,XRPD pattern after heating,[6]; heated to 120° C.,remains as the Form E crystal form; also recorded: consistent with Form E
same,XRPD pattern after heating,[6]; heated to 190° C.,converts to an amorphous form; also recorded: amorphous pattern
Cl.O=C1CC[C@H](N2Cc3c(OCc4ccc(CN5CCOCC5)cc4)cccc3C2=O)C(=O)N1 [Form I],XRPD Result,"[1]; MeOAc, 1 minute at RT",Form A
same,Form conversion upon exposure to ambient humidity / ambient condition,[1]; listed as I,Converts to Form A
same,XRPD pattern after washing with MeOAc,[1]; washed with MeOAc,converts to the Form A crystal; also recorded: consistent with Form A
Cl.O=C1CC[C@H](N2Cc3c(OCc4ccc(CN5CCOCC5)cc4)cccc3C2=O)C(=O)N1 [Form K],Form conversion upon exposure to ambient humidity / ambient condition,[1],converts to the Form F crystal; also recorded: convert to Form F
same,Form conversion upon exposure to ambient humidity / ambient condition,[1]; listed as K,Converts to Form F
